In PubChem BioAssay (NCI) one finds GI50 and TGI data, which are given here for ten molecules.

Common to all, as to assay: NCI anticancer screen, dose series, 48 h
The test system of assay [1] is 786-0 renal.
Assay [2] concerns MCF7 breast.
Assay [3] has as its system COLO 205 colon.
The subject of assay [4] is NCI-H23 lung.
Assay [5] deals with T-47D breast.
Assay [6] has as its system KM12 colon.
Assay [7] relates to K-562 leukemia.
Assay [8] deals with HL-60(TB) leukemia.
Assay [9] has as its system KM20L2 colon.

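96-well plates; 48 h exposure; 5 concentrations. Endpoints by linear interpolation between flanking doses. Not reached: highest tested concentration assigned. GI50 marks 50% less growth. TGI: total growth inhibition.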

Turning to `O=C(c1ccco1)c1c(C(F)(F)F)nc2ccc(C(F)(F)F)cc2[n+]1[O-]`, the GI50 was 27 µM in [1]; 33.6 µM in [2]; greater than 100 µM in assay [3]; greater than 80.4 µM in [4]; 36.3 µM in assay [5]; 68 µM in [6]. Besides, the GI50 in assay [7] is greater than 73.8 µM; in assay [8], greater than 100 µM. Moreover, the TGI in assay [1] was 62 µM; in [2], greater than 100 µM; in assay [3] it was greater than 100 µM; in assay [4], greater than 100 µM; in assay [5], greater than 87.5 µM; in assay [6], greater than 100 µM. Also, the TGI in [7] and in [8] was greater than 100 µM throughout.

Turning to `O=C1C(=O)c2ccccc2C(O)=C1CCCc1ccc(C2CCCC2)cc1`, the GI50 is 4.02 µM in [1]; 4.21 µM in assay [2]; 6.82 µM in assay [3]; 5.19 µM in assay [4]; 7.21 µM in [5]; 5.1 µM in assay [6]. The values for the GI50 in assay [7] and in assay [8] were 3.31 µM and 2.9 µM, respectively. Also, the TGI in assay [1] stood at 21.4 µM; in assay [2], 21.1 µM; in assay [3] it was 54.3 µM; in [4] it was 22.6 µM; in assay [5] it was 98 µM; in [6] it was 25.1 µM. For the same molecule, the TGI in [7] was 10.4 µM; in [8] it was 6.92 µM.

Turning to `NS(=O)(=O)c1ccc(NCc2cnc3ccccc3n2)cc1`, the TGI in assay [1], in [2], in assay [3], in assay [4], in assay [5] and in [6] was greater than 100 µM each time. Besides, the TGI in [7] and in assay [8] was greater than 100 µM throughout.

With `CCCCCCC/C=C/[C@H]1O[C@]2(O)C(=O)C=C3C[C@@H](O[C@@H]4O[C@H](CO)[C@@H](O)C(O)[C@@H]4O)C[C@@H]3[C@H]2C=C1C` (stereo partly specified), the GI50 in assay [1] is 2.35 µM; in assay [2], 1.05 µM; in assay [3], 5.56 µM; in assay [4] it was 4.96 µM; in assay [5], 0.919 µM; in assay [6], 3.71 µM. For the same molecule, the GI50 in [7] was 1.04 µM; in assay [8] it was 0.812 µM. The TGI in [1] was found to be 7.08 µM; in assay [2], 7.88 µM; in [3], 11.8 µM; in assay [4], 13 µM; in [5] it was 5.34 µM; in [6], 8.65 µM. Further, the TGI in assay [7] amounted to 3.55 µM; in assay [8], 4.05 µM.

For `C[C@]12CC[C@H]3[C@@H](CCC4=CC(=O)CC[C@@]43C)[C@@H]1CC[C@@H]2C(=O)COS(=O)(=O)c1ccc(Br)cc1`, the TGI in [1] was greater than 22.4 µM; in assay [2], 22.5 µM; in assay [3] it was 53.1 µM; in assay [4], 8.62 µM; in assay [5], 37.5 µM; in assay [6] it was 44.8 µM. For the same molecule, the values for the TGI in [7] and in assay [8] were 31.7 µM and 21.9 µM, respectively.

`Clc1cc2c(nn1)Nc1ccccc1S2`: the GI50 in [1], in assay [2], in assay [3], in assay [4], in [5] and in assay [6] was greater than 100 µM throughout. Besides, the GI50 in assay [7] and in assay [8] was greater than 100 µM each time. The TGI in assay [1], in assay [2], in assay [3], in assay [4], in assay [5] and in assay [6] was greater than 100 µM in each case. Besides, the TGI in assay [7] and in [8] was greater than 100 µM each time.

Regarding `Clc1nc(Cl)c2c3c(sc2n1)CCCC3`, the GI50 in assay [1] is 5.17 µM; in assay [2] it was 3.56 µM; in [3], 2.75 µM; in assay [4], 5.92 µM; in assay [5], greater than 22.1 µM; in assay [6] it was greater than 100 µM. In addition, the GI50 is 3.77 µM in assay [7] and greater than 27.4 µM in assay [8]. Moreover, the TGI in [1] was greater than 100 µM; in assay [2], greater than 100 µM; in [3] it was greater than 22.6 µM; in assay [4], greater than 100 µM; in assay [5] it was greater than 100 µM; in assay [6] it was greater than 100 µM. The TGI in [7] and in [8] was greater than 100 µM in each case.

For `O=C(CC1(O)C(=O)Nc2ccccc21)c1ccc(F)cc1` (stereo unspecified), the TGI in assay [1], in [3], in assay [4], in [9], in assay [7] and in assay [8] was greater than 100 µM in each case.

`COc1cc2nc(-c3ccc(Cl)cc3)cc(OCCCN3CCCC3)c2cc1OC`: the GI50 in assay [1] is 2.78 µM; in assay [2] it was 1.33 µM; in [3] it was 0.459 µM; in [4], 2.45 µM; in assay [5], 1.02 µM; in assay [6], 2.46 µM. Also, the GI50 in assay [7] is 1.06 µM; in [8] it was 2.72 µM. Also, the TGI in [1] is 12.1 µM; in assay [2], 3.07 µM; in assay [3], 3.12 µM; in [4], 12.1 µM; in assay [5], 10.5 µM; in assay [6], 10.2 µM. In addition, the TGI in assay [7] came out at 4.68 µM; in [8], 8.33 µM.

With `COc1cc2oc(-c3ccc(O)cc3O)c(CC=C(C)C)c(=O)c2c(O)c1/C=C/C(C)C`, the TGI in [1] is 4.53 µM; in assay [2], 7.56 µM; in [3], 10.3 µM; in assay [4], 8.87 µM; in [5], 23.4 µM; in assay [6], 7.51 µM. In addition, the figures for the TGI in assay [7] and in assay [8] were 4.64 µM and 5.59 µM, respectively.
